Results as given in patent US20180133211A1, “METHODS AND MATERIALS FOR PROMOTING BONE FORMATION” (Mayo Foundation for Medical Education and Research, priority 2015, published 2018).

Assays:
BMSCs = assay: RT-qPCR mRNA expression; assay type: cell-based, mouse
Experimental: Mouse bone marrow mesenchymal stem cells were isolated from aseptically dissected long bones of 6-week old C57BL/6 mice (Himberg, Austria). The marrow cavities were flushed with sterile medium using a 25-gauge needle, and the culture was established in α-MEM supplemented with 10% FCS and […]. After 48 hours of culture at 5% CO2 and 37° C., the non-adherent cells were removed by gentle rinsing with PBS. At confluence, cells were harvested and seeded at a density of 3,000/cm^2 for cell experiments. […]
Total RNA was extracted using the SV Total RNA Isolation kit (Promega) following the supplier's instructions. cDNA was synthesized from about 0.5 μg RNA using the First Strand cDNA Synthesis kit (Roche) as described by the supplier. The resulting cDNAs were subjected to quantitative PCR amplification with a real-time cycler using the QUANTITECT™ SYBR® Green PCR Kit (Qiagen, Hilden, Germany) for the genes Alpl, Fas, Lox, Tet1, Tet2, and TAQMAN® Gene expression Master Mix (Applied Biosystems, Foster City, Calif., USA) for measuring Runx2, Bglap2, Colla1, Tnfsf11, and 18S rRNA expression (for primers, see Table 1). […] All RT-qPCR assays were performed in triplicate, and expression was evaluated using the comparative quantification method (Pfaffl, Nucleic Acids Res., 29:e45 (2001)).

female C57BL/6 mice = assay: Bone histomorphometry of distal femur after 5 weeks of GSK126; assay type: in vivo, mouse; conditions: for N.Ob/B.pm / N.Ob/T.Ar / N.Oc/B.Pm / N.Oc/T.Ar / Ob.S/BS / Oc.S/BS: mean
Experimental: (§1) Female C57BL/6 mice (Harlan Laboratories) were maintained on a 12-hour light/12-hour dark cycle and were permitted ad libitum access to food and water. For efficacy studies, 6-week old mice received daily intraperitoneal (IP) injections of GSK126 at 15 mg/kg, 50 mg/kg, or vehicle (DMSO) in 20% Captisol adjusted to pH 4-4.5 with IN acetic acid (McCabe et al., Nature, 492:108-112 (2012)) for 5 weeks.
(§2) The dosage, delivery schedule, and administration route were similar to those described elsewhere (McCabe et al., Nature, 492:108-112 (2012)). Animals were weighed daily. To label mineralizing bone surfaces, mice received subcutaneous injections of calcein (10 mg/kg) 5 days and 24 hours before euthanasia.
The right distal femur was processed for static and dynamic histomorphometry as described elsewhere (McGee-Lawrence et al., Bone, 48:1117-1126 (2011)). Thin (5 μm) sections were stained with Von Kossa/McNeal's tetrachrome to highlight osteoblast surfaces and Goldner's trichrome to examine mineralizing surface and bone surfaces. Osteoclasts were detected using TRAP staining. Unstained sections were used for assessment of dynamic histomorphometry and bone area. Slides were digitized under 40× magnification using Mikroscan D2 digital whole slide scanner and Q-Skan software (Mikroscan Technologies). Beginning 450 μm proximal to the growth plate, mineralizing surface (MS/BS, %/day), mineral apposition rate (MAR, μm/day), bone formation rate (BFR/BV, %/day), osteoblast surface/bone surface (Ob.S/BS, %), osteoblast number/bone perimeter (N.Ob/B.Pm, #/mm), osteoclast surface/bone surface (Oc.S/BS, %), and osteoclast number/bone perimeter (N.Oc/B.Pm, #/mm) were quantified using Image J software as described elsewhere (Schneider et al., Nat. Methods, 9:671-675 (2012) and Egan et al., Histopathology, 61:1168-1173 (2012)).

Mesenchymal stem cells = assay: RNA-Seq of mesenchymal stem cells treated with BMP2 and/or GSK126; assay type: cell-based, human; conditions: 2 μM GSK126 together with 50 ng/ml BMP2
Experimental: mRNASeq was performed on the following samples: 1) MSCs grown on plastic or titanium disks in osteogenic cocktail (one sample from each time-point, samples created by pooling biological triplicates), 2) RNA from d3 AMCs treated with vehicle or 2 μM GSK126 in osteogenic cocktail (three samples from each treatment group), 3) RNA from d3, d6, and d10 MC3T3 treated with vehicle or 5 μM GSK126 (one sample from each treatment group at each time-point, samples created by pooling biological triplicates), 4) RNA from three day old female WT or cKO (Prrx1-Ezh2) (one sample from each genotype, pooling of RNA from three (WT) and two (cKO)), and one sample of MSCs in adipogenic cocktail for six days. High throughput mRNA sequencing and bioinformatic analyses (mRNASeq) were performed as described elsewhere (Dudakovic et al., J. Cell Biochem., 115:1816-1828 (2014)).
In addition, osteogenic genes are synergistically activated by GSK126 and BMP2. Mesenchymal stem cells were treated with 50 ng/ml BMP2 and/or 2 μM GSK126. […] Thus, EZH2 inhibition enhances the osteogenic potential of cells treated with BMP2, a key osteogenic activator.

[1] = Body and spleen weight in GSK126 in vivo studies; design: species or system mouse
Experimental: as §1, §2
The effects of GSK126 administration on the skeleton was evaluated in an estrogen-deficient ovariectomy (OVX) model. At about 12 weeks of age, female C57BL/6 mice underwent either sham or OVX surgeries. The following day, animals received daily IP injections of GSK126 or vehicle (DMSO) at 50 mg/kg body weight for 6 weeks as described herein. To label mineralizing bone surfaces and study bone formation rates, mice received subcutaneous injections of tetracycline (25 mg/kg) 14 days prior sacrifice and calcein (10 mg/kg) at 5 days and 24 hours before euthanasia.

[2] = distal femoral metaphysis, 15 mg/kg
[3] = distal femoral metaphysis, 50 mg/kg

Structure (SMILES) | Bglap2 mRNA expression (BMSCs) | Runx2 mRNA expression (BMSCs; 3 μM) | N.Ob/B.pm (female C57BL/6 mice; [2]) | N.Ob/T.Ar (female C57BL/6 mice; [2]) | N.Oc/B.Pm (female C57BL/6 mice; [2]) | N.Oc/T.Ar (female C57BL/6 mice; [2]) | Ob.S/BS (female C57BL/6 mice; [2]) | N.Ob/B.pm (female C57BL/6 mice; [3]) | N.Ob/T.Ar (female C57BL/6 mice; [3]) | N.Oc/B.Pm (female C57BL/6 mice; [3]) | N.Oc/T.Ar (female C57BL/6 mice; [3]) | Ob.S/BS (female C57BL/6 mice; [3]) | interlabel thickness (Ir.L.Th), mineral apposition rate (MAR) and bone formation rate (BFR) (female C57BL/6 mice; dynamic histomorphometry, GSK126 50 mg/kg vs vehicle) | Oc.S/BS (female C57BL/6 mice; static histomorphometry, distal femoral metaphysis, 15 mg/kg) | Oc.S/BS (female C57BL/6 mice; static histomorphometry, distal femoral metaphysis, 50 mg/kg) | osteoblast surface area per bone surface area (Ob.S/BS) (female C57BL/6 mice; static histomorphometry, distal femoral metaphysis, in words (FIG. 19C)) | number of osteoblasts per bone perimeter (N. Ob./B.Pm) (female C57BL/6 mice; static histomorphometry, distal femoral metaphysis, in words (FIG. 19D)) | expression of key osteogenic factors DLXS, SP7, IBSP (Mesenchymal stem cells) | body or spleen weight at sacrifice ([1]; C57bl/6 mice, 15 mg/kg or 50 mg/kg GSK126 for 5 weeks vs vehicle) | Body and spleen weights ([1]; mouse ovariectomy model, six weeks of daily injections, between surgical and treatment groups)
C[S+]([O-])CCCCN=C=S (racemic) [DL-SFN] | up regulated | stimulates | – | – | – | – | – | – | – | – | – | – | – | – | – | – | – | – | – | –
CC[C@H](C)n1cc(C)c2c(C(=O)NCc3c(C)cc(C)[nH]c3=O)cc(-c3ccc(N4CCNCC4)nc3)cc21 [GSK126, N-[(1,2-dihydro-4,6-dimethyl-2-oxo-3-pyridinyl)methyl]-3-methyl-1-[(1S)-1-methylpropyl]-6-[6-(1-piperazinyl)-3-pyridinyl]-1H-indole-4-carboxamide] | – | – | 0.028 #/mm | 0.109 | 0.015 #/mm | 0.042 | 0.354% | 0.040 #/mm | 0.081 | 0.018 #/mm | 0.050 | 0.551% | enhanced | 0.314% | 0.240% | increase | increase | synergistically enhanced | No changes | similar
